The values that follow come from patent publication US20250145598A1, “ACID CERAMIDASE INHIBITORS AND USES THEREOF” (The Regents of the University of California, priority 2021, published 2025).

The structures appear in SMILES notation.

This experiment has as its target T1, Acid ceramidase (Homo sapiens, UniProt Q13510).
T1 sequence (Q13510 22-395): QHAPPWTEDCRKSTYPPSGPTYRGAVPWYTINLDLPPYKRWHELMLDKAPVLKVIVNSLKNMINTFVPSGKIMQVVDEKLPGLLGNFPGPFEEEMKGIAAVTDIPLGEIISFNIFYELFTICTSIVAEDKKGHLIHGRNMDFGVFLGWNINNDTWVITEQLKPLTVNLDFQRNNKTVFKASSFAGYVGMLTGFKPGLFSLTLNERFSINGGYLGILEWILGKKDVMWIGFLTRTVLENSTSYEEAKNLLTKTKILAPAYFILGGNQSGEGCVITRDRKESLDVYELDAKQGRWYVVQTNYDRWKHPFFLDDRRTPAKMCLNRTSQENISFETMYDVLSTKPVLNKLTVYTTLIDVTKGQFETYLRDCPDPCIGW
The experiment can be described thus: Acid ceramidase assay (AC in vitro IC50). The format is biochemical. As to conditions: Acid ceramidase assay data of example compounds.
As usually defined, the IC50 is the midpoint of a concentration-inhibition curve. Higher therefore signals weaker potency. On to `N#Cc1cccc(COc2ccc(-c3cn(C(=O)NCCCCc4ccccc4)cn3)cc2)c1` [AC2020601-0275, 4-(4-((3-cyanobenzyl)oxy)phenyl)-N-(4-phenylbutyl)-1H-imidazole-1-carboxamide], for which the IC50 is < 300 nM.

As for `CS(=O)(=O)c1ccc(COc2ccc(-c3cn(C(=O)NCC4CCN(c5cc(F)ccc5F)C4)cn3)cc2)cc1` (stereo not drawn) [AC2020601-0496, N-((1-(2,5-difluorophenyl)pyrrolidin-3-yl)methyl)-4-(4-(4-(methylsulfonyl)benzyloxy)phenyl)-1H-imidazole-1-carboxamide], the IC50 was < 300 nM.

In the case of `CCCCCCNC(=O)n1cnc(-c2ccc(OCc3ccc(S(C)(=O)=O)cc3)cc2)c1` [AC2020601-0296, N-hexyl-4-(4-((4-(methylsulfonyl)benzyl)oxy)phenyl)-1H-imidazole-1-carboxamide], the half-inhibitory concentration (IC50) was < 300 nM.

For `CS(=O)(=O)c1ccc(COc2ccc(-c3cn(C(=O)NCCCOc4ccc(S(F)(F)(F)(F)F)cc4)cn3)cc2)cc1` [AC2020601-0374], the concentration for half-maximal inhibition (IC50) was < 300 nM.

For the compound `NC(=O)c1cccc(COc2ccc(-c3cn(C(=O)NCCCCc4ccccc4)cn3)cc2)c1` [AC2020601-0246, 4-(4-((3-carbamoylbenzyl)oxy)phenyl)-N-(4-phenylbutyl)-1H-imidazole-1-carboxamide], the IC50 was < 300 nM.

Regarding `CS(=O)(=O)c1ccc(COc2ccc(-c3cn(C(=O)NCC4CN(c5ccccc5)C4)cn3)cc2)cc1` [AC2020601-0321, 4-(4-((4-(methylsulfonyl)benzyl)oxy)phenyl)-N-((1-phenylazetidin-3-yl)methyl)-1H-imidazole-1-carboxamide], the IC50 was < 300 nM.
